pIC50: −log10 of the molar value.

By pIC50 is commonly meant the negative decadic logarithm of the IC50, by convention in mol/L.

For the assay, the target named is T1, human TRPV4 (Homo sapiens, UniProt Q9HBA0).
T1 construct: expressed in transfected cells; host or cells: BHK/AC9 cells transduced with BacMam virus
T1 sequence (Q9HBA0 whole entry): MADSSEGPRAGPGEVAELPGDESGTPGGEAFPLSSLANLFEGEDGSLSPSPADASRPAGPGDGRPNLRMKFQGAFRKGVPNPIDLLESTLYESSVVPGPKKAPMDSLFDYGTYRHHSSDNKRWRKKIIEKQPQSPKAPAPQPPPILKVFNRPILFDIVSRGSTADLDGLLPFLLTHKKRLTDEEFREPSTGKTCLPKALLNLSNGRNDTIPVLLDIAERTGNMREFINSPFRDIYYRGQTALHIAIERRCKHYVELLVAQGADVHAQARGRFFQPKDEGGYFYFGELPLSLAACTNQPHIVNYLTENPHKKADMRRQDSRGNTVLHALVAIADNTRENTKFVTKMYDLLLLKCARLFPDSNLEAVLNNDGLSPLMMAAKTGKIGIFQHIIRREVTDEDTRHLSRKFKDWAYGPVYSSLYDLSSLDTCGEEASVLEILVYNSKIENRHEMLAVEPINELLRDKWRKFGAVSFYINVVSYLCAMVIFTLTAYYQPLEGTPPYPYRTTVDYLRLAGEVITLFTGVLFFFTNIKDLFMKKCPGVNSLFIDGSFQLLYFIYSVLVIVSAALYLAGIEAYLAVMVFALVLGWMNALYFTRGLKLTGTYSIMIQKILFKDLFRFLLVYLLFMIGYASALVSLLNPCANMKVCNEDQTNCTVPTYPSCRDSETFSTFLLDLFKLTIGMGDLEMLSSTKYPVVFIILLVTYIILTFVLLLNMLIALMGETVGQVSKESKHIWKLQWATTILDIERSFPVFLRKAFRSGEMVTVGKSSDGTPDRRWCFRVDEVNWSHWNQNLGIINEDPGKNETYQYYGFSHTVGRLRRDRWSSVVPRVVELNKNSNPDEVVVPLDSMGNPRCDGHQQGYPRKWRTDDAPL
The assay is described as follows: FLIPR assay for hTRPV4 expressed in BHK cells: inhibition of Agonist Compound-induced calcium signal. It counts as cell-based. Conditions: hTRPV4 in BHK/AC9 cells, FLIPR calcium signal, agonist at EC80; reported as range class; read-out: IC50. An outline of the steps:
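BHK/AC9 cells transduced with BacMam human TRPV4 (MOI 78), plated 15,000 per well and cultured 24 h at 37° C. Loaded with 2 μM Fluo-4 AM plus 500 μM Brilliant Black in HBSS for 1-1.5 h at room temperature in the dark; intracellular calcium signal read by FLIPR fluorescence.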
With `N#Cc1cc(F)ccc1S(=O)(=O)N1C[C@H](Oc2ccc(Cl)cc2)[C@@](O)(CO)C1` [Example 147, 2-(((3S,4S)-4-(4-chlorophenoxy)-3-hydroxy-3-(hydroxymethyl)pyrrolidin-1-yl)sulfonyl)-5-fluorobenzonitrile], the pIC50 was 7.00 to 8.00.
In the case of `N#Cc1cc(C(F)(F)F)ccc1S(=O)(=O)N1C[C@H](Oc2ccc(C(F)(F)F)cc2)[C@@](O)(CO)C1` [Example 148, 2-(((3S,4S)-3-hydroxy-3-(hydroxymethyl)-4-(4-(trifluoromethyl)phenoxy)pyrrolidin-1-yl)sulfonyl)-5-(trifluoromethyl)benzonitrile], the pIC50 was 7.00 to 8.00.
The same measure for `N#Cc1cc(F)ccc1S(=O)(=O)N1C[C@H](Oc2ccc(C(F)(F)F)cc2)[C@@](O)(CO)C1` [Example 149, 5-fluoro-2-(((3S,4S)-3-hydroxy-3-(hydroxymethyl)-4-(4-(trifluoromethyl)phenoxy)pyrrolidin-1-yl)sulfonyl)benzonitrile]: 7.00 to 8.00; for `N#Cc1ccc(S(=O)(=O)N2C[C@H](Oc3ccc(C(F)(F)F)cc3)[C@](O)(CO)C2)c(Cl)c1` [Example 150, 3-chloro-4-(((3R,4S)-3-hydroxy-3-(hydroxymethyl)-4-(4-(trifluoromethyl)phenoxy)pyrrolidin-1-yl)sulfonyl)benzonitrile]: 7.00 to 8.00; for `N#Cc1cc(Cl)ccc1S(=O)(=O)N1C[C@H](Oc2ccc(Cl)cc2)[C@@](O)(CO)C1` [Example 151, 5-chloro-2-(((3S,4S)-4-(4-chlorophenoxy)-3-hydroxy-3-(hydroxymethyl)pyrrolidin-1-yl)sulfonyl)benzonitrile]: 8.00 to 10.00.
`N#Cc1cc(Cl)ccc1S(=O)(=O)N1C[C@H](Oc2ccc(C(F)(F)F)cc2)[C@@](O)(CO)C1` [Example 152, 5-chloro-2-(((3S,4S)-3-hydroxy-3-(hydroxymethyl)-4-(4-(trifluoromethyl)phenoxy)pyrrolidin-1-yl)sulfonyl)benzonitrile]: the pIC50 was 8.00 to 10.00.
The result for `N#Cc1cc(F)ccc1S(=O)(=O)N1C[C@H](Oc2ccc(C(F)(F)F)cc2)[C@](O)(CO)C1` [Example 153, 5-fluoro-2-(((3R,4S)-3-hydroxy-3-(hydroxymethyl)-4-(4-(trifluoromethyl)phenoxy)pyrrolidin-1-yl)sulfonyl)benzonitrile] reads 8.00 to 10.00; that for `N#Cc1cc(Cl)ccc1S(=O)(=O)N1C[C@H](Oc2ccc(Cl)cc2)[C@](O)(CO)C1` [Example 154, 5-chloro-2-(((3R,4S)-4-(4-chlorophenoxy)-3-hydroxy-3-(hydroxymethyl)pyrrolidin-1-yl)sulfonyl)benzonitrile], 8.00 to 10.00.
The result for `N#Cc1cc(F)ccc1S(=O)(=O)N1C[C@H](Oc2ccc(Cl)cc2)[C@](O)(CO)C1` [Example 155, 2-(((3R,4S)-4-(4-chlorophenoxy)-3-hydroxy-3-(hydroxymethyl)pyrrolidin-1-yl)sulfonyl)-5-fluorobenzonitrile] reads 8.00 to 10.00; that for `N#Cc1cc(Cl)ccc1S(=O)(=O)N1C[C@H](Oc2ccc(C(F)(F)F)cc2)[C@](O)(CO)C1` [Example 156, 5-chloro-2-(((3R,4S)-3-hydroxy-3-(hydroxymethyl)-4-(4-(trifluoromethyl)phenoxy)pyrrolidin-1-yl)sulfonyl)benzonitrile], 8.00 to 10.00.
For `N#Cc1cc(OCC(F)(F)F)c(O[C@H]2CN(S(=O)(=O)c3ccc(C(F)(F)F)cc3C#N)C[C@@]2(O)CO)cc1F` [Example 157, 4-(((3S,4R)-1-((2-cyano-4-(trifluoromethyl)phenyl)sulfonyl)-4-hydroxy-4-(hydroxymethyl)pyrrolidin-3-yl)oxy)-2-fluoro-5-(2,2,2-trifluoroethoxy)benzonitrile], the pIC50 is 8.00 to 10.00.
The result for `COc1cc(C#N)c(F)cc1O[C@H]1CN(S(=O)(=O)c2ccc(C(F)(F)F)cc2C#N)C[C@@]1(O)CO` [Example 158, 4-(((3S,4R)-1-((2-cyano-4-(trifluoromethyl)phenyl)sulfonyl)-4-hydroxy-4-(hydroxymethyl)pyrrolidin-3-yl)oxy)-2-fluoro-5-methoxybenzonitrile] reads 8.00 to 10.00.
